Test results: patent US20230183237A1, “COMPETITIVE AND NONCOMPETITIVE INHIBITORS OF THE MUSCARINIC ACETYLCHOLINE RECEPTOR M5” (Vanderbilt University, priority 2020, published 2023)
Where two headings read alike, the source gives them in different places.

Target: T1, hM5 (Homo sapiens, UniProt P08912)
T1 construct: expressed in transfected cells
T1 sequence (P08912 1-532): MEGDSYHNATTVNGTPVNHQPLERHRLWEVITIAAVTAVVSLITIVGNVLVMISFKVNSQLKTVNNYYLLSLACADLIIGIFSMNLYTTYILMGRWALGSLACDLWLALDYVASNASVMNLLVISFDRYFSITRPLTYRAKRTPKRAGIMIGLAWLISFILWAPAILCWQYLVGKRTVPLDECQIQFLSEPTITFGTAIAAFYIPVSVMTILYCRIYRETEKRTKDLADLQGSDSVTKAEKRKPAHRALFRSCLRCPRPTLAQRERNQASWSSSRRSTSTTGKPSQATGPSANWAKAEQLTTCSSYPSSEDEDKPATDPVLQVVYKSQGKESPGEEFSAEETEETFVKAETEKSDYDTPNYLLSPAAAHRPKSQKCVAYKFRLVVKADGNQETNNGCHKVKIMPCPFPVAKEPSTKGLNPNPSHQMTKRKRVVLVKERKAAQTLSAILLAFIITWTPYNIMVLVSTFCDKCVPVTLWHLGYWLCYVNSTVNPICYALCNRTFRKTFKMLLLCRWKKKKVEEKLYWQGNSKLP
Assay: Calcium mobilization concentration-response (IC50 vs EC80 acetylcholine), CHO hM5
Assay type: cell-based
Procedure, shortened: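 CHO cells stably expressing hM5, dye-loaded, in HBSS/20 mM HEPES/2.5 mM probenecid, pH 7.4. Compounds were pre-incubated 140 s before an EC80 acetylcholine challenge, with calcium flux read kinetically.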

[1] = CELL LINE hM5, calcium mobilization, EC80 acetylcholine addition, read-out: IC50
[2] = CELL LINE hM5, vs EC80 acetylcholine, read-out: IC50

Row | SMILES | IC50 [1] [nM] | other results
1 | O=S(=O)(c1cnn2c1CCC2)N1CCC(c2cn3ncnc3cc2F)CC1 [Compound 232, 6-(1-((5,6-dihydro-4H-pyrrolo[1,2-b]pyrazol-3-yl)sulfonyl)piperidin-4-yl)-7-fluoro-[1,2,4]triazolo[1,5-a]pyridine] | 26 | –
2 | Cc1c(S(=O)(=O)N2CCC(c3cn4ncnc4cc3C(=O)O)CC2)cnn1C [Compound 479, 6-(1-((1,5-dimethyl-1H-pyrazol-4-yl)sulfonyl)piperidin-4-yl)-[1,2,4]triazolo[1,5-a]pyridine-7-carboxylic acid] | – | IC50 [2]: > 10000 nM
3 | Cc1cc2ncnn2cc1C1CCN(S(=O)(=O)c2cccc3c2OCCO3)CC1 [Compound 152, 6-(1-((2,3-dihydrobenzo[b]dioxin-5-yl)sulfonyl)piperidin-4-yl)-7-methyl-[1,2,4]triazolo[1,5-a]pyridine] | 117 | –
4 | Cc1cc2nc(C(F)F)nn2cc1C1=CCN(S(=O)(=O)c2cnn3c2CCCC3)CC1 [Compound 316, 2-(difluoromethyl)-7-methyl-6-(1-((4,5,6,7-tetrahydropyrazolo[1,5-a]pyridin-3-yl)sulfonyl)-1,2,3,6-tetrahydropyridin-4-yl)-[1,2,4]triazolo[1,5-a]pyridine] | 1200 | –
5 | Cc1cc2ncnn2cc1C1CCN(S(=O)(=O)c2ccc3c(c2)C(C)CO3)CC1 (stereo not drawn) [Compound 73, 7-methyl-6-(1-((3-methyl-2,3-dihydrobenzofuran-5-yl)sulfonyl)piperidin-4-yl)-[1,2,4]triazolo[1,5-a]pyridine] | 69 | –
6 | Cc1cc2ncnn2cc1C1CCN(S(=O)(=O)c2cnn3c2NCCC3)CC1 [Compound 261, 7-methyl-6-(1-((4,5,6,7-tetrahydropyrazolo[1,5-a]pyrimidin-3-yl)sulfonyl)piperidin-4-yl)-[1,2,4]triazolo[1,5-a]pyridine] | 62 | –
7 | Cc1cc2ncnn2nc1C1CCN(S(=O)(=O)c2cn(C)nn2)CC1 [Compound 559, 7-methyl-6-(1-((1-methyl-1H-1,2,3-triazol-4-yl)sulfonyl)piperidin-4-yl)-[1,2,4]triazolo[1,5-b]pyridazine] | – | IC50 [2]: > 10000 nM
8 | Cc1cc2ncnn2cc1C1CCN(S(=O)(=O)c2cnc(Cl)c(C)c2)CC1 [Compound 57, 6-(1-((6-chloro-5-methylpyridin-3-yl)sulfonyl)piperidin-4-yl)-7-methyl-[1,2,4]triazolo[1,5-a]pyridine] | 1400 | –
9 | Cc1cc2nccn2cc1C1CCN(S(=O)(=O)c2cc3c(cc2F)OCC3)CC1 [Compound 67, 6-(1-((6-fluoro-2,3-dihydrobenzofuran-5-yl)sulfonyl)piperidin-4-yl)-7-methylimidazo[1,2-a]pyridine] | 2600 | –
10 | O=S(=O)(c1cnn2c1CCC2)N1CC=C(c2cn3ncnc3cc2Cl)CC1 [Compound 196, 7-chloro-6-(1-((5,6-dihydro-4H-pyrrolo[1,2-b]pyrazol-3-yl)sulfonyl)-1,2,3,6-tetrahydropyridin-4-yl)-[1,2,4]triazolo[1,5-a]pyridine] | 6.1 | –
11 | Cc1ncc(S(=O)(=O)N2CCC(c3cn4ncnc4cc3CF)CC2)o1 [Compound 623, 5-((4-(7-(fluoromethyl)-[1,2,4]triazolo[1,5-a]pyridin-6-yl)piperidin-1-yl)sulfonyl)-2-methyloxazole] | – | IC50 [2]: 246 nM
12 | CO[C@H]1CN(S(=O)(=O)c2cnn(C)c2Cl)CC[C@@H]1c1cn2ncnc2cc1C (single isomer, unassigned) [Compound 460] | – | IC50 [2]: > 10000 nM
13 | [2H]C([2H])([2H])OCc1c(S(=O)(=O)N2CCC(c3cn4ncnc4cc3F)CC2)cnn1C [Compound 441, 7-fluoro-6-(1-((5-((methoxy-d3)methyl)-1-methyl-1H-pyrazol-4-yl)sulfonyl)piperidin-4-yl)-[1,2,4]triazolo[1,5-a]pyridine] | – | IC50 [2]: > 10000 nM
14 | Cc1cc2ncnn2cc1C1=CC2CCC(C1)N2S(=O)(=O)c1ccc2c(c1)CCO2 (stereo not drawn) [Compound 190, 6-(8-((2,3-dihydrobenzofuran-5-yl)sulfonyl)-8-azabicyclo[3.2.1]oct-2-en-3-yl)-7-methyl-[1,2,4]triazolo[1,5-a]pyridine] | – | IC50: > 10000 nM
15 | CCc1cc2ncnn2cc1C1CCN(S(=O)(=O)c2cnn(C)c2C(F)F)CC1 [Compound 301, 6-(1-((5-(difluoromethyl)-1-methyl-1H-pyrazol-4-yl)sulfonyl)piperidin-4-yl)-7-ethyl-[1,2,4]triazolo[1,5-a]pyridine] | 85 | –
16 | Cc1ncc(S(=O)(=O)N2CCC(c3ccncc3C)CC2)s1 [Compound 430, 2-methyl-5-((4-(3-methylpyridin-4-yl)piperidin-1-yl)sulfonyl)thiazole] | – | IC50 [2]: > 10000 nM
17 | Cc1c(C2CCN(S(=O)(=O)c3ccc4c(c3)CCO4)CC2)cn2ncnc2c1F [Compound 267, 6-(1-((2,3-dihydrobenzofuran-5-yl)sulfonyl)piperidin-4-yl)-8-fluoro-7-methyl-[1,2,4]triazolo[1,5-a]pyridine] | 208 | –
18 | Cc1cc(S(=O)(=O)N2CCC(c3cnc(N(C)C)cc3C)CC2)sn1 [Compound 565, N,N,4-trimethyl-5-(1-((3-methylisothiazol-5-yl)sulfonyl)piperidin-4-yl)pyridin-2-amine] | – | IC50 [2]: 38 nM
19 | Cc1c(C2CCN(S(=O)(=O)c3cnc4n3CCCC4)CC2)cn2ncnc2c1F [Compound 349, 8-fluoro-7-methyl-6-(1-((5,6,7,8-tetrahydroimidazo[1,2-a]pyridin-3-yl)sulfonyl)piperidin-4-yl)-[1,2,4]triazolo[1,5-a]pyridine] | 17 | –
20 | Cc1cc2ncnn2cc1C1CCN(S(=O)(=O)c2cc3c(cc2F)OCC3)CC1 [Compound 47, 6-(1-((6-fluoro-2,3-dihydrobenzofuran-5-yl)sulfonyl)piperidin-4-yl)-7-methyl-[1,2,4]triazolo[1,5-a]pyridine] | 441 | –
21 | [2H]C1([2H])Oc2cc(C)c(C3CCN(S(=O)(=O)c4cnn(C)c4C)CC3)cc2OC1([2H])[2H] [Compound 389, 1-((1,5-dimethyl-1H-pyrazol-4-yl)sulfonyl)-4-(7-methyl-2,3-dihydrobenzo[b][1,4]dioxin-6-yl-2,2,3,3-d4)piperidine] | 182 | –
22 | Cc1cc(C#N)cnc1C1=CCN(S(=O)(=O)c2cnn(C)c2C)CC1 [Compound 209, 1′-((1,5-dimethyl-1H-pyrazol-4-yl)sulfonyl)-3-methyl-1′,2′,3′,6′-tetrahydro-[2,4′-bipyridine]-5-carbonitrile] | > 10000 | –
23 | Cc1cc2nccn2nc1N1CCN(S(=O)(=O)c2cnc(C)n2C)CC1 [Compound 436, 6-(4-((1,2-dimethyl-1H-imidazol-5-yl)sulfonyl)piperazin-1-yl)-7-methylimidazo[1,2-b]pyridazine] | – | IC50 [2]: 113 nM
24 | Cc1cc(N(C)C)ncc1C1CCN(S(=O)(=O)c2cnn(C)c2Cl)CC1 [Compound 551, 5-(1-((5-chloro-1-methyl-1H-pyrazol-4-yl)sulfonyl)piperidin-4-yl)-N,N,4-trimethylpyridin-2-amine] | – | IC50 [2]: 7 nM
25 | Cc1cc2ncnn2nc1C1=CCN(S(=O)(=O)c2ccc3c(c2)CCO3)CC1 [Compound 167, 6-(1-((2,3-dihydrobenzofuran-5-yl)sulfonyl)-1,2,3,6-tetrahydropyridin-4-yl)-7-methyl-[1,2,4]triazolo[1,5-b]pyridazine] | > 10000 | –
26 | O=S(=O)(c1cnn2c1CCC2)N1CC=C(c2cc3ncnn3cc2Cl)CC1 [Compound 195, 6-chloro-7-(1-((5,6-dihydro-4H-pyrrolo[1,2-b]pyrazol-3-yl)sulfonyl)-1,2,3,6-tetrahydropyridin-4-yl)-[1,2,4]triazolo[1,5-a]pyridine] | 65 | –
27 | COc1ccc(S(=O)(=O)N2CCC(c3nn4ccnc4cc3C)CC2)c(C)c1 [Compound 41, 6-(1-((4-methoxy-2-methylphenyl)sulfonyl)piperidin-4-yl)-7-methylimidazo[1,2-b]pyridazine] | > 10000 | –

Now from value to compound, other results behind:

Row | IC50 [1] [nM] | SMILES | other results
28 | > 10000 | Cc1ccncc1C1CCN(S(=O)(=O)c2cnc(C)n2C)CC1 [Compound 385, 3-(1-((1,2-dimethyl-1H-imidazol-5-yl)sulfonyl)piperidin-4-yl)-4-methylpyridine] | –
29 | > 10000 | Cc1cc2nccn2nc1C1CCN(S(=O)(=O)c2cccnc2)CC1 [Compound 53, 7-methyl-6-(1-(pyridin-3-ylsulfonyl)piperidin-4-yl)imidazo[1,2-b]pyridazine] | –
30 | 21 | Cc1c(C2CCN(S(=O)(=O)c3cnn(C)c3C)CC2)cn2ncnc2c1F [Compound 264, 6-(1-((1,5-dimethyl-1H-pyrazol-4-yl)sulfonyl)piperidin-4-yl)-8-fluoro-7-methyl-[1,2,4]triazolo[1,5-a]pyridine] | –
31 | 822 | Cc1ccncc1C1CCN(S(=O)(=O)c2cnn3c2CCC3)CC1 [Compound 388, 3-((4-(4-methylpyridin-3-yl)piperidin-1-yl)sulfonyl)-5,6-dihydro-4H-pyrrolo[1,2-b]pyrazole] | –
32 | 989 | Cc1cc(S(=O)(=O)N2CCC(c3cn4ncnc4cc3C)CC2)c(C)s1 [Compound 145, 6-(1-((2,5-dimethylthiophen-3-yl)sulfonyl)piperidin-4-yl)-7-methyl-[1,2,4]triazolo[1,5-a]pyridine] | –
33 | > 10000 | Cc1cc2ncnn2cc1C1(O)CCN(S(=O)(=O)c2cnc(C)n2C)CC1 [Compound 309, 1-((1,2-dimethyl-1H-imidazol-5-yl)sulfonyl)-4-(7-methyl-[1,2,4]triazolo[1,5-a]pyridin-6-yl)piperidin-4-ol] | –
